Measurements taken from ChEMBL document CHEMBL1828505, “Bioactive components from the heartwood of Pterocarpus santalinus” (Bioorg Med Chem Lett, 2011).

Tests used:
A549 = assay: Cytotoxicity against human A549 cells; type: functional, cell-based
DU-145 = assay: Cytotoxicity against human DU145 cells; type: functional, cell-based
KB = assay: Cytotoxicity against human KB cells; type: functional, cell-based
[1] = Cytotoxicity against human Hep3B cells; type: functional, cell-based, Hep 3B2
HepG2 = assay: Cytotoxicity against human HepG2 cells; type: functional, cell-based
Neutrophil = assay: Ratio of LY294002 IC50 to compound IC50 for inhibition of fMLP/CB-indcued elastase release in human neutrophils; type: functional
[2] = Cytotoxicity against human KBVIN cells; type: functional, cell-based
[3] = Antiinflammatory activity in human neutrophils assessed as inhibition of fMLP/CB-induced elastase release; type: functional, cell-based; settings: Neutrophil
[4] = Antiinflammatory activity in human neutrophils assessed as inhibition of fMLP/CB-indcued superoxide anion production; type: functional, cell-based; settings: Neutrophil

Structure (SMILES)	IC50 [3]	IC50 [4]	IC50 (A549)	IC50 (DU-145)	IC50 (KB)	IC50 [1]	IC50 (HepG2)	Ratio IC50 (Neutrophil)	IC50 [2]
COc1cc2oc(=O)cc(-c3ccccc3)c2cc1O [DALBERGIN]	–	–	> 10 µg/mL	> 10 µg/mL	> 10 µg/mL	–	–	–	> 10 µg/mL
COc1cc(O)c(C(=O)c2ccccc2)cc1O [CEAROIN]	–	–	> 10 µg/mL	> 10 µg/mL	35.3 µM	–	–	–	32.2 µM
COc1cccc2c1C(=O)c1c(O)c3c(c(O)c1C2=O)C[C@@](O)(C(=O)CO)C[C@@H]3O[C@H]1C[C@H](N)[C@H](O)[C@H](C)O1 [DOXORUBICIN]	–	–	–	–	–	1.57 µM	1.29 µM	–	–

Second part, led by results:

IC50 [3]	IC50 [4]	Structure (SMILES)	IC50 (A549)	IC50 (DU-145)	IC50 (KB)	IC50 [1]	IC50 (HepG2)	Ratio IC50 (Neutrophil)	IC50 [2]
0.95 µM	–	COc1ccc(C(=O)/C=C/c2cc(O)c(OC)cc2O)cc1O [PTEROLINUS L]	21.9 µM	29.8 µM	17.2 µM	20.9 µM	20.4 µM	6	22.4 µM
4.24 µM	0.99 µM	COC1=CC(=O)c2cc(-c3ccc(OC)c(O)c3)c3cc(O)c(OC)cc3c2C1=O [PTEROLINUS K]	> 10 µg/mL	> 10 µg/mL	> 10 µg/mL	10.9 µM	> 10 µg/mL	–	> 10 µg/mL
6.48 µM	3.84 µM	O=c1cc(N2CCOCC2)oc2c(-c3ccccc3)cccc12 [LY-294002]	–	–	–	–	–	–	–
